# Measured values taken from patent publication US20230143612A1 (Arbutus Biopharma Corporation, priority 2020, published 2023).
# Biological target: PD-L1 His protein / PD-1 Fc protein (Homo sapiens, UniProt Q9NZQ7)
# Assay: HTRF Assay (PD-1/PD-L1 interaction)
# Type: binding
# Settings: PD-L1 His 6 nM, PD-1 Fc 6 nM
# Outline: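 Compounds tested from 20 μM down to 0.001 μM (3-fold) against 6 nM PD-L1 His and 6 nM PD-1 Fc, 15 min room temperature incubation. Detection after 1 h at room temperature with Tb cryptate anti-6HIS and XL665 anti-human IgG reagents (mixture at 0.35 nM and 6.7 nM), HTRF signal.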
# Sequence of PD-L1 His protein / PD-1 Fc protein (Q9NZQ7 19-238 limits assumed): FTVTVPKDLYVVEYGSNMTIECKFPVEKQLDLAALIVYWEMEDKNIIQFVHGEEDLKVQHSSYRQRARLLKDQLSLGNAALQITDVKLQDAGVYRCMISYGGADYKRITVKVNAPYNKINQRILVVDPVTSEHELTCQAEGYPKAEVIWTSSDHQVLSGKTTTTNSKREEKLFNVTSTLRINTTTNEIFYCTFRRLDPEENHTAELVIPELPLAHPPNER
row,Compound,IC50 [nM]
1,"COc1nc(-c2cccc(-c3cccc(-c4cc5c(=O)n(C)c(CN6CC7(CC(O)C7)C6)nn5c4)c3Cl)c2Cl)ccc1CNC[C@@H]1CCC(=O)N1 [Example 468, 6-[2-Chloro-3-[2-chloro-3-[6-methoxy-5-[[[(2S)-5-oxopyrrolidin-2-yl]methylamino]methyl]-2-pyridyl]phenyl]phenyl]-2-[(6-hydroxy-2-azaspiro[3.3]heptan-2-yl)methyl]-3-methyl-pyrrolo[2,1-f][1,2,4]triazin-4-one]",7
2,"COc1nc(-c2cccc(-c3cccc(-c4cc5c(=O)n(C)c(CN6CC(C)(O)C6)nn5c4)c3Cl)c2Cl)ccc1CNC[C@@H]1CCC(=O)N1 [Example 469, 6-[2-Chloro-3-[2-chloro-3-[6-methoxy-5-[[[(2S)-5-oxopyrrolidin-2-yl]methylamino]methyl]-2-pyridyl]phenyl]phenyl]-2-[(3-hydroxy-3-methyl-azetidin-1-yl)methyl]-3-methyl-pyrrolo[2,1-f][1,2,4]triazin-4-one]",5.9
3,"COc1nc(-c2cccc(-c3cccc(-c4cc5c(=O)n(C)c(CN6CC(C)(C#N)C6)nn5c4)c3Cl)c2Cl)ccc1CNC[C@@H]1CCC(=O)N1 [Example 470, 1-[[6-[2-chloro-3-[2-chloro-3-[6-methoxy-5-[[[(2S)-5-oxopyrrolidin-2-yl]methylamino]methyl]-2-pyridyl]phenyl]phenyl]-3-methyl-4-oxo-pyrrolo[2,1-f][1,2,4]triazin-2-yl]methyl]-3-methyl-azetidine-3-carbonitrile]",37
4,"COc1nc(-c2cccc(-c3cccc(-c4nc5c(c(OC)n4)CN(C[C@@H]4CCC(=O)N4)CC5)c3Cl)c2Cl)ccc1CNC[C@@H]1CCC(=O)N1 [Example 471, (S)-5-((((6-(2,2′-Dichloro-3′-(4-methoxy-6-(((S)-5-oxopyrrolidin-2-yl)methyl)-5,6,7,8-tetrahydropyrido[4,3-d]pyrimidin-2-yl)-[1,1′-biphenyl]-3-yl)-2-methoxypyridin-3-yl)methyl)amino)methyl)pyrrolidin-2-one]",0.1
5,"COc1nc(-c2cccc(-c3cccc(-c4cc5c(=O)n(C)c(CNC[C@@H]6CCO6)nn5c4)c3Cl)c2Cl)ccc1CNC[C@@H]1CCC(=O)N1 [Example 472, 6-[2-Chloro-3-[2-chloro-3-[6-methoxy-5-[[[(2S)-5-oxopyrrolidin-2-yl]methylamino]methyl]-2-pyridyl]phenyl]phenyl]-3-methyl-2-[[[(2S)-oxetan-2-yl]methylamino]methyl]pyrrolo[2,1-f][1,2,4]triazin-4-one]",400
6,"COc1nc(-c2cccc(-c3cccc(-c4cc5c(=O)n(C)c(CNC67CC(O)(C6)C7)nn5c4)c3Cl)c2Cl)ccc1CNC[C@@H]1CCC(=O)N1 [Example 473, (S)-6-(2,2′-Dichloro-3′-(6-methoxy-5-((((5-oxopyrrolidin-2-yl)methyl)amino)methyl)pyridin-2-yl)-[1,1′-biphenyl]-3-yl)-2-(((3-hydroxybicyclo[1.1.1]pentan-1-yl)amino)methyl)-3-methylpyrrolo[2,1-f][1,2,4]triazin-4(3H)-one]",5.3
7,"COc1nc(-c2cccc(-c3cccc(-c4cc5c(=O)n(C)c(CNC[C@@H]6CCCO6)nn5c4)c3Cl)c2Cl)ccc1CNC[C@@H]1CCC(=O)N1 [Example 474, 6-[2-Chloro-3-[2-chloro-3-[6-methoxy-5-[[[(2S)-5-oxopyrrolidin-2-yl]methylamino]methyl]-2-pyridyl]phenyl]phenyl]-3-methyl-2-[[[(2S)-tetrahydrofuran-2-yl]methylamino]methyl]pyrrolo[2,1-f][1,2,4]triazin-4-one]",21
8,"COc1nc(-c2cccc(-c3cccc(-c4cc5c(=O)n(C)c(CNC[C@H](C)OC)nn5c4)c3Cl)c2Cl)ccc1CNC[C@@H]1CCC(=O)N1 [Example 475, 6-[2-Chloro-3-[2-chloro-3-[6-methoxy-5-[[[(2S)-5-oxopyrrolidin-2-yl]methylamino]methyl]-2-pyridyl]phenyl]phenyl]-2-[[[(2S)-2-methoxypropyl]amino]methyl]-3-methyl-pyrrolo[2,1-f][1,2,4]triazin-4-one]",530
9,"COc1nc(-c2cccc(-c3cccc(-c4cc5c(=O)n(C)c(CNC[C@H]6CNC(=O)C6)nn5c4)c3Cl)c2Cl)ccc1CNC[C@@H]1CCC(=O)N1 [Example 476, 6-[2-Chloro-3-[2-chloro-3-[6-methoxy-5-[[[(2S)-5-oxopyrrolidin-2-yl]methylamino]methyl]-2-pyridyl]phenyl]phenyl]-3-methyl-2-[[[(3S)-5-oxopyrrolidin-3-yl]methylamino]methyl]pyrrolo[2,1-f][1,2,4]triazin-4-one]",33
10,"COc1nc(-c2cccc(-c3cccc(-c4cc5c(=O)n(C)c(CNC(C)C)nn5c4)c3Cl)c2Cl)ccc1CNC[C@@H]1CCC(=O)N1 [Example 477, 6-[2-Chloro-3-[2-chloro-3-[6-methoxy-5-[[[(2S)-5-oxopyrrolidin-2-yl]methylamino]methyl]-2-pyridyl]phenyl]phenyl]-2-[(isopropylamino)methyl]-3-methyl-pyrrolo[2,1-f][1,2,4]triazin-4-one]",17
11,"COc1nc(-c2cccc(-c3cccc(-c4cc5c(=O)n(C)c(CNCC(C)(C)O)nn5c4)c3Cl)c2Cl)cc(Cl)c1CNC[C@@H]1CCC(=O)N1 [Example 478, (S)-6-(2,2′-Dichloro-3′-(4-chloro-6-methoxy-5-((((5-oxopyrrolidin-2-yl)methyl)amino)methyl)pyridin-2-yl)-[1,1′-biphenyl]-3-yl)-2-(((2-hydroxy-2-methylpropyl)amino)methyl)-3-methylpyrrolo[2,1-f][1,2,4]triazin-4(3H)-one]",29
12,"COc1nc(-c2cccc(-c3cccc(-c4cc5c(=O)n(C)c(CNC(C)(C)C)nn5c4)c3Cl)c2Cl)ccc1CNC[C@@H]1CCC(=O)N1 [Example 479, 2-[(tert-Butylamino)methyl]-6-[2-chloro-3-[2-chloro-3-[6-methoxy-5-[[[(2S)-5-oxopyrrolidin-2-yl]methylamino]methyl]-2-pyridyl]phenyl]phenyl]-3-methyl-pyrrolo[2,1-f][1,2,4]triazin-4-one]",14
13,"COc1nc(-c2cccc(-c3cccc(-c4cc5c(=O)n(C)c(CNC[C@@H](O)CC(=O)N(C)C)nn5c4)c3Cl)c2Cl)ccc1CNC[C@@H]1CCC(=O)N1 [Example 481, (S)-4-(((6-(2,2′-Dichloro-3′-(6-methoxy-5-(((((S)-5-oxopyrrolidin-2-yl)methyl)amino)methyl)pyridin-2-yl)-[1,1′-biphenyl]-3-yl)-3-methyl-4-oxo-3,4-dihydropyrrolo[2,1-f][1,2,4]triazin-2-yl)methyl)amino)-3-hydroxy-N,N-dimethylbutanamide]",42
14,"COC(=O)CNCc1nn2cc(-c3cccc(-c4cccc(-c5ccc(CNC[C@@H]6CCC(=O)N6)c(OC)n5)c4Cl)c3Cl)cc2c(=O)n1C [Example 482, Methyl 2-[[6-[2-chloro-3-[2-chloro-3-[6-methoxy-5-[[[(2S)-5-oxopyrrolidin-2-yl]methylamino]methyl]-2-pyridyl]phenyl]phenyl]-3-methyl-4-oxo-pyrrolo[2,1-f][1,2,4]triazin-2-yl]methylamino]acetate]",28
15,"COc1nc(-c2cccc(-c3cccc(N4Cc5ccc(CNC[C@@H]6CCC(=O)N6)cc5C4=O)c3Cl)c2Cl)ccc1CNC[C@@H]1CCC(=O)N1 [Example 483, 2-(2,2′-Dichloro-3′-(6-methoxy-5-(((((S)-5-oxopyrrolidin-2-yl)methyl)amino)methyl)pyridin-2-yl)-[1,1′-biphenyl]-3-yl)-6-(((((S)-5-oxopyrrolidin-2-yl)methyl)amino)methyl)isoindolin-1-one]",0.1
16,"COc1cc(-c2cccc(-c3cccc(-c4ccc(CNC[C@@H]5CCC(=O)N5)c(OC)n4)c3Cl)c2Cl)cc2c1CN(CCC1(O)CCC1)CC2 [Example 484, (S)-5-((((6-(2,2′-Dichloro-3′-(2-(2-(1-hydroxycyclobutyl)ethyl)-8-methoxy-1,2,3,4-tetrahydroisoquinolin-6-yl)-[1,1′-biphenyl]-3-yl)-2-methoxypyridin-3-yl)methyl)amino)methyl)pyrrolidin-2-one]",0.3
17,"COc1cc(-c2cccc(-c3cccc(-c4ccc(CNC[C@@H]5CCC(=O)N5)c(OC)n4)c3Cl)c2Cl)cc2c1CN(CCC(C)(C)O)CC2 [Example 485, (S)-5-((((6-(2,2′-Dichloro-3′-(2-(3-hydroxy-3-methylbutyl)-8-methoxy-1,2,3,4-tetrahydroisoquinolin-6-yl)-[1,1′-biphenyl]-3-yl)-2-methoxypyridin-3-yl)methyl)amino)methyl)pyrrolidin-2-one]",0.1
18,"COc1nc(-c2cccc(-c3cccc(-c4cc5c(=O)n(C)c(CN[C@H]6CC[C@H](O)CC6)nn5c4)c3Cl)c2Cl)ccc1CNC[C@@H]1CCC(=O)N1 [Example 486, 6-[2-Chloro-3-[2-chloro-3-[6-methoxy-5-[[[(2S)-5-oxopyrrolidin-2-yl]methylamino]methyl]-2-pyridyl]phenyl]phenyl]-2-[[(4-hydroxycyclohexyl)amino]methyl]-3-methyl-pyrrolo[2,1-f][1,2,4]triazin-4-one]",0.4
19,"COc1nc(-c2cccc(-c3cccc(-c4cc5c(=O)n(C)c(CNCC(=O)O)nn5c4)c3Cl)c2Cl)ccc1CNC[C@@H]1CCC(=O)N1 [Example 487, 2-[[6-[2-Chloro-3-[2-chloro-3-[6-methoxy-5-[[[(2S)-5-oxopyrrolidin-2-yl]methylamino]methyl]-2-pyridyl]phenyl]phenyl]-3-methyl-4-oxo-pyrrolo[2,1-f][1,2,4]triazin-2-yl]methylamino]acetic acid]",0.1
20,"COc1cc(-c2cccc(-c3cccc(-c4ccc(CNC[C@@H]5CCC(=O)N5)c(OC)n4)c3Cl)c2Cl)cc2c1CN(CC(O)C(C)C)CC2 (stereo partly drawn) [Example 488, (5S)-5-((((6-(2,2′-Dichloro-3′-(2-(2-hydroxy-3-methylbutyl)-8-methoxy-1,2,3,4-tetrahydroisoquinolin-6-yl)-[1,1′-biphenyl]-3-yl)-2-methoxypyridin-3-yl)methyl)amino)methyl)pyrrolidin-2-one]",0.2
